# Assay results: US20250243520A1, “PRODUCTION METHOD FOR L-CYCLIC AMINO ACIDS” (UBE CORPORATION, priority 2019, published 2025)
# Read-outs that look alike come from different tables or passages of the source.
# What was measured:
# [1] = tested on: Morus alba imino acid (imine) reductase MaP2CR, GST-fused, SEQ ID NO: 10 (MaP2CR: SEQ ID NO: 4); experiment: Analysis of enzymatic catalytic activity: reduction of PipC2 with varied NADPH, absorbance at 340 nm (MaP2CR); assay type: biochemical
# [2] = tested on: Lathyrus japonicus imino acid (imine) reductase LjP2CR, GST-fused, SEQ ID NO: 12 (LjP2CR: SEQ ID NO: 6); experiment: Analysis of enzymatic catalytic activity: reduction of PipC2 with varied NADPH, absorbance at 340 nm (LjP2CR); assay type: biochemical
# [3] = target: T1, Pseudomonas putida PipC2 reductase dpkA (Pseudomonas putida, UniProt Q5FB93); parameters: NADP Vmax: unit not given here; details: cited from earlier work
# [4] = target: T1, Pseudomonas putida PipC2 reductase dpkA; experiment: Literature kinetics of PipC2 reductase dpkA (Muramatsu et al., 2005); assay type: biochemical; details: Table 5; literature value; molecular weight 35954
# [5] = Enzyme reaction with PipC2 enzyme synthesis solution and *NADPH; products analysed by LCMS and chiral HPLC; assay type: biochemical; details: 10 mM *NADPH, 30° C., 120 minutes
# Procedure: An enzyme reaction was carried out using each enzyme solution (purified P2CR recombinant enzyme solution) obtained in Example 1. The reaction was carried out using a 1.5 mL Eppendorf tube as the reaction vessel, and using each enzyme reaction solution in a volume of 100 μL. Since PipC2 which serves as the substrate is not commercially available, one obtained from L-lysine by enzyme synthesis, using the aminotransferase MaALDI obtained in Reference Example 1 to be described later, was used.
# The enzyme reaction was carried out using a shaking incubator (manufactured by AS ONE Corporation), at a reaction temperature of 30° C. with shaking at 1,000 rpm. The reaction time was set to 120 minutes. Heating was performed at a reaction temperature of 98° C. for five minutes to inactivate the enzyme, and the reaction was terminated. Subsequently, the reaction solution was centrifuged at 15,000 rpm at room temperature for 10 minutes, and the resulting supernatant was used as a PipC2 enzyme synthesis solution.
# Thereafter, the reaction was carried out under the same conditions as the reaction using the enzyme MaALDI described above, to obtain an enzyme reaction product.
# Each of the enzyme reaction products was analyzed by liquid chromatography-mass spectrometry (LCMS). First, each sample (enzyme reaction product) was subjected to a derivatization treatment. Using AccQ·Tag Ultra Derivatization Kit (manufactured by Waters Corporation), a mixture of each sample was prepared according to the composition shown in Table 3. The derivatizating reagent solution was added at last. After mixing, the mixture was incubated at 55° C. for 10 minutes.
# Each sample which had been subjected to the derivatization treatment was diluted two-fold with pure water, and used as a sample for LCMS analysis.
# When the activities of the enzyme reaction products were analyzed by LCMS analysis, it was confirmed that the products had the same retention time as that of L-PipA as the standard, and that novel peaks of the MS pattern were observed. Further, it was unable to detect PipA in the control. […]
# [6] = Table 5, values determined by ANEMONA, GST-fused protein
# [7] = Table 5, values determined by ANEMONA, GST-fused protein, read-out: NADP Km
# T1 sequence (Q5FB93 whole entry): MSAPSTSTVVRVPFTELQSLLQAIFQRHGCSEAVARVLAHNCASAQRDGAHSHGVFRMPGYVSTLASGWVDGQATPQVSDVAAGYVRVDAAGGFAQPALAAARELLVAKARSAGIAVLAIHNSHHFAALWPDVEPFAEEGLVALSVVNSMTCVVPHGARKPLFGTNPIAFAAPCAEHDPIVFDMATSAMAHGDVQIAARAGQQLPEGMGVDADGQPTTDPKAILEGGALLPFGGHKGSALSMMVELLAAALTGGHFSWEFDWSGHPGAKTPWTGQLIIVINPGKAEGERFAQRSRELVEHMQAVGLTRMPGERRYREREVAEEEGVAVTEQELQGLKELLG
molecule,measurement,setting,value
"NC(=O)C1=CN([C@@H]2O[C@H](COP(=O)(O)OP(=O)(O)OC[C@H]3O[C@@H](n4cnc5c(N)ncnc54)[C@H](OP(=O)(O)O)[C@@H]3O)[C@@H](O)[C@H]2O)C=CC1 [NADPH, reduced nicotinamide adenine dinucleotide phosphate]",Vmax,"[1]; Hanes-Woolf plot, NADPH 0.5-80 μM, Tris-HCl pH 7.2",24.00 nmol/min/mg
same,Km,"[1]; Hanes-Woolf plot, NADPH 0.5-80 μM, Tris-HCl pH 7.2, read-out: Km",6.16 µM
same,Activity per one molecule of enzyme kcat,"[1]; Table 5, GST-fused protein, molecular weight 61792",0.0217 s⁻¹
same,NADP Vmax,[1]; [6],21
same,Km,[1]; [7],3.6 µM
same,Vmax,"[1]; nonlinear regression by ANEMONA, NADPH 0.5-80 μM, Tris-HCl pH 7.2",21.2 nmol/min/mg
same,Km,"[1]; nonlinear regression by ANEMONA, NADPH 0.5-80 μM, Tris-HCl pH 7.2, read-out: Km",3.57 µM
same,Vmax,"[2]; Hanes-Woolf plot, NADPH 10-500 μM, Tris-HCl pH 7.2",199.55 nmol/min/mg
same,Km,"[2]; Hanes-Woolf plot, NADPH 10-500 μM, Tris-HCl pH 7.2, read-out: Km",170 µM
same,Activity per one molecule of enzyme kcat,"[2]; Table 5, GST-fused protein, molecular weight 63449",0.198 s⁻¹
same,NADP Vmax,[2]; [6],187
same,Km,[2]; [7],155 µM
same,Vmax,"[2]; nonlinear regression by ANEMONA, NADPH 10-500 μM, Tris-HCl pH 7.2",187.3 nmol/min/mg
same,Km,"[2]; nonlinear regression by ANEMONA, NADPH 10-500 μM, Tris-HCl pH 7.2, read-out: Km",155 µM
same,Vmax,[3]; Muramatsu et al. 2005,220 nmol/min/mg
same,Km,"[3]; Muramatsu et al. 2005, read-out: Km",140 µM
same,NADP Vmax,"[3]; Table 5, literature value",220
same,Km,"[3]; Table 5, literature value, read-out: NADP Km",140 µM
same,Activity per one molecule of enzyme kcat,[4],0.132 s⁻¹
"AtP2CR: imino acid reductase derived from Arabidopsis thaliana, SEQ ID NO: 2; GST-fused form SEQ ID NO: 8 (protein, listed as Arabidopsis thaliana) MAALPVFIPAESFPSILSHETLINHFRTNLPKHSSTITSPVRQNYTVSSPSSLLLMPSWSSSSSLPYMGVKLVTYFPHNSSQNLPGIHGSYTLFSSTTGQTLATMDGTVLTLYRTSSVSGLGSKILARDDSQVLIMVGSGALAPHLIKSHLAARPSLRRVIIWNRTPQRAQELAETLSKDPQHKEISFDSHDSLDQIIPLGDIISCATNSTVPLVKGEFLKPGTHLDLAGSFSHEMKECDDNAIQRGSVFVDNDTAMIEAGELAGAFERGVIKREDICGNLVELIKGDKEGRKSSTDITVFKSVGSGTVDLLTAQLVHETYLSRC",ability to reduce PipC2 to convert to PipA (LCMS of enzyme reaction products),[5],have the ability to reduce PipC2 to convert to PipA
"LjP2CR: imino acid reductase derived from Lathyrus japonicus, SEQ ID NO: 6; GST-fused form SEQ ID NO: 12 (protein, listed as Lathyrus japonicus) MASANKDQKTTNTVSSSSSSSSPIFISTENLQTILTHQTLMKHIDSNLPKVSTFLQTPIRQHYSLSPSSSLLLMPSWSSSSSFPYVGVKLVTHFPQNSSINLPGVQGSYVLFNSTTGQTLASMDSTELTLYRTSCVSGLASRYLSRDDSEVLVMVGAGPLAPHLIRAHFSARPSLRKVLIWNRTVEKAEALAKNLRESDEFSLSGLSFEGCGCLNEVVGLGDIVSCATNSEMALVKGERLKVGAHLDLVGSFKPSMKECDDEALKRGKVFVDNEAALVEAGELVGAFERGVIKEDEIEANLVELIRGDKVGRRSSEEITVFKSVGSAVVDMLAAQFVYESYIGK",ability to reduce PipC2 to convert to PipA (LCMS of enzyme reaction products),[5],have the ability to reduce PipC2 to convert to PipA
"MaP2CR: imino acid reductase derived from Morus alba, SEQ ID NO: 4; GST-fused form SEQ ID NO: 10 (protein, listed as Morus alba) MASTTTAITSPIFITTQSFHTILSRQTLMDHFHSSLPTVSASLSTPLRQNHAVSPTSSLLLMPSWSTSPSLPYIGVKLVTYFPQSSTLSLPGIHASYVLFSSATGQTLASMDGTALTLFRTSCVSGLASRILARDDSKVLVMIGAGALAPHLIKAHLTARPGLERVVIWNRTVEKARNLAEQLQQSSGLDGVCFESNGCLEEVVGMGDIVSCATNSEAPLVKGQKLKPGAHLDLVGSFKHSMRECDDEAIQRGRIFVDNEAALVEAGELVGAFERGVITKEDIGGNLVELIMGEKVGRRDSEEVTVFKSVGSAAVDILAAQLVYETYLQQNN",ability to reduce PipC2 to convert to PipA (LCMS of enzyme reaction products),[5],have the ability to reduce PipC2 to convert to PipA
